pIC50: −log10 of the molar value. Like-named read-outs stand apart in the source and are kept apart here.
Columns and labels:
[1] = biological target: NDM-1 (Klebsiella pneumoniae, UniProt C7C422); assay: biochemical; type: biochemical; conditions: read-out: NDM-1 IC50
[2] = biological target: IMP-1 (Serratia marcescens, UniProt P52699); assay: biochemical; type: biochemical; conditions: read-out: IMP-1 IC50
[3] = tested on: Klebsiella pneumoniae expressing VIM-1 (IHMA599644); assay: Antibiotic potentiation activity: synergistic concentration (MITC95) with imipenem, OD600 growth; type: cell-based; conditions: for Klebsiella pneumoniae expressing VIM-1 (IHMA 599644) MITC95: concentration giving 95% inhibition of bacterial growth
Summary of the method: (§1)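 Spectrophotometric growth readings were taken following 22–24 h at 35 °C. Before that, organisms in 1.1× CAMHB were mixed with imipenem, used at 4 μg/ml in assay, and test compound.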

[4] = tested on: Serratia marcescens expressing IMP-1 (CL5741); assay: as above; type: cell-based; conditions: for Serratia marcescens expressing IMP-1 (CL5741) MITC95: concentration giving 95% inhibition of bacterial growth
Summary of the method: as §1

[5] = tested on: Escherichia coli expressing NDM-1 (CLB30016); assay: as above; type: cell-based; conditions: for Escherichia coli expressing NDM-1 (CLB 30016) MITC95: concentration giving 95% inhibition of bacterial growth
Summary of the method: as §1

[6] = biological target: VIM-1 (Pseudomonas aeruginosa (strain ATCC 15692 / DSM 22644 / CIP 104116 / JCM 14847 / LMG 12228 / 1C / PRS 101 / PAO1), UniProt A0A0F7KYQ8); assay: Enzyme activity: determination of IC50, fluorescence assay with CCF2-FA substrate (VIM-1); type: biochemical
[7] = NDM-1 enzyme, CCF2-FA substrate
[8] = IMP-1 enzyme, CCF2-FA substrate
[9] = Klebsiella pneumoniae IHMA599644 (VIM-1), 95% growth inhibition
[10] = Serratia marcescens CL5741 (IMP-1), 95% growth inhibition
[11] = (CLB30016, NDM-1), 95% growth inhibition
[12] = VIM-1 enzyme, CCF2-FA substrate, read-out: VIM-1 IC50
[13] = fluorescence assay with CCF2-FA substrate
[14] = fluorescence assay with CCF2-FA substrate, read-out: VIM-1 IC50
[15] = NDM-1 enzyme, CCF2-FA fluorescence assay
[16] = IMP-1 enzyme, CCF2-FA fluorescence assay
[17] = Klebsiella pneumoniae expressing VIM-1 (IHMA599644), 95% growth inhibition
[18] = Serratia marcescens expressing IMP-1 (CL5741), 95% growth inhibition
[19] = Escherichia coli expressing NDM-1 (CLB30016), 95% growth inhibition

IMP-1, sequence (P52699 whole entry, looked up): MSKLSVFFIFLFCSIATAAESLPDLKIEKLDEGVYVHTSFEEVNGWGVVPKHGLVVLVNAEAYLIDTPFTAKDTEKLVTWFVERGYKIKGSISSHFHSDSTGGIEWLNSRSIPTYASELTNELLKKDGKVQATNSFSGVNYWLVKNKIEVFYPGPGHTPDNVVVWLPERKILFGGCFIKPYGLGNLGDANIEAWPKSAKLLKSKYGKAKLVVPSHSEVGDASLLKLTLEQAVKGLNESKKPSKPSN
NDM-1, sequence (C7C422 whole entry, looked up, species assumed): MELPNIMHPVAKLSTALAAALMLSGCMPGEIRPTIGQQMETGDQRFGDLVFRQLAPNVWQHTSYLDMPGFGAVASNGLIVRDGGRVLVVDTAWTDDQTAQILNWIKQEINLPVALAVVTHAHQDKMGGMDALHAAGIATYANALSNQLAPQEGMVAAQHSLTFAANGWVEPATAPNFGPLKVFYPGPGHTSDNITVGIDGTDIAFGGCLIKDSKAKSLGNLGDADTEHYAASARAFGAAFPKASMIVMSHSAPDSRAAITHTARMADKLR

| SMILES | pIC50 [1, 7] | pIC50 [2, 8] | Klebsiella pneumoniae MITC95 [3, 9] [µM] | Serratia marcescens MITC95 [4, 10] [µM] | Escherichia coli MITC95 [5, 11] [µM] | pIC50 [1, 13] | pIC50 [2, 13] | pIC50 [6, 14] | also measured |
| --- | --- | --- | --- | --- | --- | --- | --- | --- | --- |
| NS(=O)(=O)c1c(C(F)(F)F)ccc(-c2ccc(C3CCN(CC4CNC4)CC3)cc2)c1-c1nnn[nH]1 [Example 671, 4′-[1-(azetidin-3-ylmethyl)piperidin-4-yl]-2-(1H-tetrazol-5-yl)-4-(trifluoromethyl)biphenyl-3-sulfonamide] | 8.38 | 8.70 | 37.5 | 1.563 | 1.172 | – | – | – | pIC50 [6, 12]: 8.25 |
| NC1CCCC(N[C@H]2CC[C@H](c3ccc(C(F)(F)F)c(S(N)(=O)=O)c3-c3nnn[nH]3)CC2)C1 (stereo partly drawn) [Example 687, 3-{4-[(3-aminocyclohexyl)amino]cyclohexyl}-2-(1H-tetrazol-5-yl)-6-(trifluoromethyl)benzene sulfonamide] | 7.60 | 7.03 | 25 | 6.25 | 3.125 | – | – | – | pIC50 ([6]; VIM-1 IC50, VIM-1 enzyme, CCF2-FA substrate): 7.56 |
| NS(=O)(=O)c1nccc(N2CCC3(CC2)NCNC3=O)c1-c1nnn[nH]1 [Example 221, 4-(4-oxo-1,3,8-triazaspiro[4.5]dec-8-yl)-3-(1H-tetrazol-5-yl)pyridine-2-sulfonamide] | – | – | – | – | – | 6.60 | 5.21 | 5.21 | Klebsiella pneumoniae expressing VIM-1 (IHMA 599644) MITC95 [3]: 200 µM; Serratia marcescens expressing IMP-1 (CL5741) MITC95 [4]: 100 µM; Escherichia coli expressing NDM-1 (CLB 30016) MITC95 [5]: 4.688 µM |
| NS(=O)(=O)c1nccc(NC2CCCCC2)c1-c1nnn[nH]1 [Example 234, 4-(cyclohexylamino)-3-(1H-tetrazol-5-yl)pyridine-2-sulfonamide] | – | – | – | – | – | 7.61 | 5.84 | 5.93 | Klebsiella pneumoniae expressing VIM-1 (IHMA 599644) MITC95 [3]: >200 µM; Serratia marcescens expressing IMP-1 (CL5741) MITC95 [4]: 100 µM; Escherichia coli expressing NDM-1 (CLB 30016) MITC95 [5]: 4.688 µM |
| NS(=O)(=O)c1cccc(-c2ccc(CN3CC[C@H](CO)C3)cc2)c1-c1nnn[nH]1 [Example 392, 4′-{[(3S)-3-(hydroxymethyl)pyrrolidin-l-yl]methyl}-2-(1H-tetrazol-5-yl)biphenyl-3-sulfonamide] | – | – | – | – | – | – | – | – | pIC50 [1, 15]: 8.10; pIC50 [2, 16]: 6.40; Klebsiella pneumoniae MITC95 [3, 17]: 75 µM; Serratia marcescens MITC95 [4, 18]: 3.125 µM; Escherichia coli MITC95 [5, 19]: 2.344 µM; pIC50 ([6]; VIM-1 IC50, VIM-1 enzyme, CCF2-FA fluorescence assay): 6.34 |
| NS(=O)(=O)c1c(C(F)(F)F)ccc(-c2cnc3cc[nH]c3c2)c1-c1nnn[nH]1 [Example 474, 3-(1H-pyrrolo[3,2-b]pyridin-6-yl)-2-(1H-tetrazol-5-yl)-6-(trifluoromethyl)benzenesulfonamide] | – | – | – | – | – | – | – | – | pIC50 [1, 15]: 9.28; pIC50 [2, 16]: 8.41; Klebsiella pneumoniae MITC95 [3, 17]: 1.531 µM; Serratia marcescens MITC95 [4, 18]: 0.4453 µM; Escherichia coli MITC95 [5, 19]: 0.09375 µM; pIC50 ([6]; VIM-1 enzyme, CCF2-FA fluorescence assay, read-out: VIM-1 IC50): 9.26 |
| NCC1COc2ccc(-c3ccc(C(F)(F)F)c(S(N)(=O)=O)c3-c3nnn[nH]3)cc21 (stereo not drawn) [Example 733, 3-[3-(aminomethyl)-2,3-dihydro-1-benzofuran-5-yl]-2-(1H-tetrazol-5-yl)-6-(trifluoromethyl)benzenesulfon-amide] | 7.48 | 7.46 | 6.25 | 25 | 12.5 | – | – | – | pIC50 [6, 12]: 8.83 |
| NS(=O)(=O)c1c(C(F)(F)F)ccc(-c2ccc(C3CN(CC4CCNC4)C3)cc2)c1-c1nnn[nH]1 (stereo not drawn) [Example 818, 4′-[1-(pyrrolidin-3-ylmethyl)azetidin-3-yl]-2-(1H-tetrazol-5-yl)-4-(trifluoromethyl)biphenyl-3-sulfonamide] | – | – | – | – | – | 8.36 | 8.07 | 7.76 | Klebsiella pneumoniae MITC95 ([3]; IHMA599644 (VIM-1), 95% inhibition of bacterial growth): 12.5 µM; Serratia marcescens MITC95 ([4]; CL5741 (IMP-1), 95% inhibition of bacterial growth): 3.125 µM; Escherichia coli MITC95 ([5]; CLB30016 (NDM-1), 95% inhibition of bacterial growth): 1.563 µM |
